Data taken from patent publication US6737383B1, “Herbicidal oxadiazolidines” (priority 1999, dated 2004).

Key:
pigweed = assay: Test B pre/postemergence pigweed; format: in vivo, Amaranthus retroflexus
How it was run: (§1)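 Test chemicals in a non-phytotoxic solvent mixture with surfactant were sprayed preemergence onto planted seeds and postemergence onto plants 2 to 18 cm tall (1- to 4-leaf stage). After twelve to sixteen days in a greenhouse, injury was visually rated against untreated controls from 0 (no effect) to 10 (complete control).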

bedstraw = assay: Test B pre/postemergence bedstraw; format: in vivo, Galium aparine
How it was run: as §1

rice = assay: Test B flood test rice; format: in vivo, Oryza sativa
How it was run: (§2)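 Each value is a visual injury score relative to controls, with 10 meaning complete control and 0 no effect. Evaluation took place twelve to sixteen days after the 2-leaf-stage plants were treated and kept in the greenhouse.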

purple nutsedge = assay: Test B pre/postemergence purple nutsedge; format: in vivo, Cyperus rotundus
How it was run: as §1

blackgrass = assay: Test B pre/postemergence blackgrass; format: in vivo, Alopecurus myosuroides
How it was run: as §1

corn = assay: Test B pre/postemergence corn; format: in vivo, Zea mays
How it was run: as §1

crabgrass = assay: Test B pre/postemergence crabgrass; format: in vivo, Digitaria sanguinalis
How it was run: as §1

sugar beet = assay: Test B pre/postemergence sugar beet; format: in vivo, Beta vulgaris
How it was run: as §1

soybean = assay: Test B pre/postemergence soybean; format: in vivo, Glycine max
How it was run: as §1

surinam grass = assay: Test B pre/postemergence surinam grass; format: in vivo, Brachiaria decumbens
How it was run: as §1

velvetleaf = assay: Test B pre/postemergence velvetleaf; format: in vivo, Abutilon theophrasti
How it was run: as §1

duck salad = assay: Test B flood test duck salad; format: in vivo, Heteranthera limosa
How it was run: as §2

wheat = assay: Test B pre/postemergence wheat; format: in vivo, Triticum aestivum
How it was run: as §1

wild oat = assay: Test B pre/postemergence wild oat; format: in vivo, Avena fatua
How it was run: as §1

smallflower flatsedge = assay: Test B flood test smallflower flatsedge; format: in vivo, Cyperus difformis
How it was run: as §2

rape = assay: Test B pre/postemergence rape; format: in vivo, Brassica napus
How it was run: as §1

[1] = Postemergence, Rate 125 g/ha, scale of 0 to 10 where 0 is no effect and 10 is complete control
[2] = Preemergence, Rate 62 g/ha, scale of 0 to 10 where 0 is no effect and 10 is complete control
[3] = Preemergence, Rate 125 g/ha, 0 is no effect, 10 is complete control
[4] = Preemergence, Rate 250 g/ha, scale 0 to 10, 0 is no effect, 10 is complete control
[5] = Preemergence, Rate 500 g/ha, scale 0 to 10 (0 no effect, 10 complete control)
[6] = Rate 62 g/ha, Postemergence, scale of 0 to 10 where 0 is no effect and 10 is complete control
[7] = Rate 250 g/ha, Postemergence, scale 0 to 10, 0 is no effect, 10 is complete control
[8] = Rate 500 g/ha, Postemergence, scale 0 to 10
[9] = Postemergence (flood test species), Rate 125 g/ha, scale of 0 to 10 where 0 is no effect and 10 is complete control
[10] = Rate 62 g/ha, Postemergence section, flood test species, scale of 0 to 10 where 0 is no effect and 10 is complete control
[11] = Rate 250 g/ha, Postemergence (flood test), scale 0 to 10, 0 is no effect, 10 is complete control
[12] = Rate 500 g/ha, listed under Postemergence (flood test species), scale 0 to 10

CC(C)N(C(=O)n1oc(=O)n(-c2nc(Cl)sc2Cl)c1=O)c1ccc(F)cc1 [Compound 160]
0: Redroot pigweed plant response rating (pigweed; [1]) | Redroot pigweed plant response rating (pigweed; [2]) | Redroot pigweed plant response rating (0 to 10 scale) (pigweed; [3]) | Redroot pigweed plant response rating (pigweed; [4]) | Redroot pigweed plant response rating (pigweed; [5]) | Redroot pigweed plant response rating (pigweed; [6]) | Plant response rating, Redroot pigweed (pigweed; [7]) | Redroot pigweed plant response rating (pigweed; [8]) | Bedstraw plant response rating (bedstraw; [1]) | Bedstraw plant response rating (bedstraw; [2]) | Bedstraw plant response rating (0 to 10 scale) (bedstraw; [3]) | Bedstraw plant response rating (bedstraw; [4]) | Bedstraw plant response rating (bedstraw; [5]) | Bedstraw plant response rating (bedstraw; [6]) | Plant response rating, Bedstraw (bedstraw; [7]) | Bedstraw plant response rating (bedstraw; [8]) | Rice plant response rating (rice; [9]) | Rice plant response rating (rice; [10]) | Plant response rating, Rice (rice; [11]) | Rice plant response rating (rice; [12]) | Nutsedge plant response rating (purple nutsedge; [1]) | Nutsedge plant response rating (purple nutsedge; [2]) | Nutsedge plant response rating (0 to 10 scale) (purple nutsedge; [3]) | Nutsedge plant response rating (purple nutsedge; [4]) | Nutsedge plant response rating (purple nutsedge; [5]) | Nutsedge plant response rating (purple nutsedge; [6]) | Plant response rating, Nutsedge (purple nutsedge; [7]) | Nutsedge plant response rating (purple nutsedge; [8]) | Blackgrass plant response rating (blackgrass; [1]) | Blackgrass plant response rating (blackgrass; [2]) | Blackgrass plant response rating (0 to 10 scale) (blackgrass; [3]) | Blackgrass plant response rating (blackgrass; [4]) | Blackgrass plant response rating (blackgrass; [5]) | Blackgrass plant response rating (blackgrass; [6]) | Plant response rating, Blackgrass (blackgrass; [7]) | Blackgrass plant response rating (blackgrass; [8]) | Corn plant response rating (corn; [1]) | Corn plant response rating (corn; [2]) | Corn plant response rating (0 to 10 scale) (corn; [3]) | Corn plant response rating (corn; [4]) | Corn plant response rating (corn; [5]) | Corn plant response rating (corn; [6]) | Plant response rating, Corn (corn; [7]) | Corn plant response rating (corn; [8]) | Crabgrass plant response rating (crabgrass; [1]) | Crabgrass plant response rating (crabgrass; [2]) | Crabgrass plant response rating (0 to 10 scale) (crabgrass; [3]) | Crabgrass plant response rating (crabgrass; [4]) | Crabgrass plant response rating (crabgrass; [5]) | Crabgrass plant response rating (crabgrass; [6]) | Plant response rating, Crabgrass (crabgrass; [7]) | Crabgrass plant response rating (crabgrass; [8]) | Sugarbeets plant response rating (sugar beet; [1]) | Sugarbeets plant response rating (sugar beet; [2]) | Sugarbeets plant response rating (0 to 10 scale) (sugar beet; [3]) | Sugarbeets plant response rating (sugar beet; [4]) | Sugarbeets plant response rating (sugar beet; [5]) | Sugarbeets plant response rating (sugar beet; [6]) | Plant response rating, Sugarbeets (sugar beet; [7]) | Sugarbeets plant response rating (sugar beet; [8]) | Soybean plant response rating (soybean; [1]) | Soybean plant response rating (soybean; [2]) | Soybean plant response rating (0 to 10 scale) (soybean; [3]) | Soybean plant response rating (soybean; [4]) | Soybean plant response rating (soybean; [5]) | Soybean plant response rating (soybean; [6]) | Plant response rating, Soybean (soybean; [7]) | Soybean plant response rating (soybean; [8]) | B. signalgrass plant response rating (surinam grass; [1]) | B. signalgrass plant response rating (surinam grass; [2]) | B. signalgrass plant response rating (0 to 10 scale) (surinam grass; [3]) | B. signalgrass plant response rating (surinam grass; [4]) | B. signalgrass plant response rating (surinam grass; [5]) | B. signalgrass plant response rating (surinam grass; [6]) | Plant response rating, B. signalgrass (surinam grass; [7]) | B. signalgrass plant response rating (surinam grass; Rate 500 g/ha, Postemergence, scale 0 to 10, 0 no effect, 10 complete control) | Velvetleaf plant response rating (velvetleaf; [2]) | Velvetleaf plant response rating (0 to 10 scale) (velvetleaf; [3]) | Velvetleaf plant response rating (velvetleaf; [4]) | Velvetleaf plant response rating (velvetleaf; [5]) | Plant response rating, Velvetleaf (velvetleaf; [7]) | Velvetleaf plant response rating (velvetleaf; [8]) | Ducksalad plant response rating (duck salad; [9]) | Ducksalad plant response rating (duck salad; [10]) | Plant response rating, Ducksalad (duck salad; [11]) | Ducksalad plant response rating (duck salad; [12]) | Wheat plant response rating (wheat; [2]) | Wheat plant response rating (0 to 10 scale) (wheat; [3]) | Wheat plant response rating (wheat; [4]) | Wheat plant response rating (wheat; [5]) | Plant response rating, Wheat (wheat; [7]) | Wheat plant response rating (wheat; [8]) | Wild oats plant response rating (wild oat; [2]) | Wild oats plant response rating (0 to 10 scale) (wild oat; [3]) | Wild oats plant response rating (wild oat; [4]) | Wild oats plant response rating (wild oat; [5]) | Plant response rating, Wild oats (wild oat; [7]) | Wild oats plant response rating (wild oat; [8]) | S. Flatsedge plant response rating (smallflower flatsedge; [9]) | S. Flatsedge plant response rating (smallflower flatsedge; [10]) | Plant response rating, S. Flatsedge (smallflower flatsedge; [11]) | S. Flatsedge plant response rating (smallflower flatsedge; [12]) | Rape plant response rating (rape; [1]) | Rape plant response rating (rape; [2]) | Rape plant response rating (0 to 10 scale) (rape; [3]) | Rape plant response rating (rape; [4]) | Rape plant response rating (rape; [5]) | Rape plant response rating (rape; [6]) | Plant response rating, Rape (rape; [7]) | Rape plant response rating (rape; [8])
